{"source": "PubChem BioAssay AID2060488", "about": "(Molecular Pharmacology Branch, DTP, NCI, 2025);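 note: spheroids exposed to the agents for seven days before readout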;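 for viability, T/C: percent viability relative to DMSO vehicle control wells taken as 100%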", "system": "966289-007-R4-J1-PDC complex spheroid viability", "assay": "Anticancer human tumor 966289-007-R4-J1-PDC patient-derived pancreatic adenocarcinoma cell line growth inhibition [GQUAD]", "settings": "for IC50: curve of first compound; for viability, T/C: stronger effect = lower value", "source_text": "DNA G-quadruplex Stabilizer Agents in Combinations in Complex Spheroids\nA high-throughput screen of multi-cell type tumor spheroids was designed to identify active combinations of DNA G-quadruplex stabilizer agents and targeted small molecules. Complex spheroids include a stromal component modeled by human endothelial cells (HUVEC) and fibroblasts modeled by human mesenchymal stem cells (MSCs). The concentration ranges selected for each drug and investigational agent were based upon clinically achievable concentrations if the clinical Cmax of the agent was known.\nCompounds. The drugs and investigational agents: pidnarulex (CX-5461; NSC782164), APTO-253 (NSC789042), BRACO-19 (NSC847499), peposertib (NSC802822), ceralasertib (NSC780249), elimusertib (NSC800525), camonsertib (NSC841442), AZD-1390 (NSC803789), olaparib (NSC753686), talazoparib (NSC767125), ART-558 (NSC835418), sotorasib (NSC818433), MRTX-1133 (NSC836407), SN-38 (NSC673596), topotecan (NSC609699), etoposide (NSC141540), doxorubicin (NSC123127), gemcitabine (NSC613327), 5-fluorouracil (NSC19893), paclitaxel (NSC125973), vemurafenib (NSC761431), panobinostat (NSC761190), R-306465 (JNJ-16241199; NSC773264), adavosertib (NSC754352), TP-3654 (NSC805149), carboplatin (NSC241240), KSQ-4279 (NSC840948), and staurosporine (NSC755774) were obtained from the National Cancer Institute (NCI) Developmental Therapeutics Program Chemical Repository (34). The FDA-approved anticancer drug set is available from the NCI Developmental Therapeutics Program. […] The stock solutions were prepared in dimethyl sulfoxide (DMSO, Sigma-Aldrich, St. Louis, MO, cat. D2650) at 800-fold the tested concentration and stored at -70 degrees C prior to their use. All drugs and investigational agents were tested over a range starting from a high concentration at or near the clinical Cmax and decreasing in half-log increments. If the clinical Cmax for an agent had not been determined, the highest concentration tested was 10 microM.\n2.3 Cell Culture. All cells were maintained in an incubator at 37 degrees C and 5% CO2 with 95% humidity. The PDC lines were cultured according to standard operating procedures established by the NCI PDMR. All PDCs were thawed and cultured in Matrigel-coated flasks prepared with a working solution of 1X Ham's F-12 nutrient mix, without supplementation (Invitrogen, cat. 11765054), 100 U/mL penicillin-streptomycin (Invitrogen, cat. 15140122), and 2.5% Matrigel (Corning Inc., cat. 354248) for the first three passages. The 857933-349-R-J2-PDC line was cultured in 6C/Colon 1B media, which includes advanced DMEM/F-12 (Thermo Fisher Scientific, cat. 12634028), 10 mM HEPES (Thermo Fisher Scientific, cat. 15630080), 1X GlutaMAX supplement (Thermo Fisher Scientific, cat. 35050061), 0.1 mg/mL primocin (InvivoGen, cat. ant-pm-2), 10% defined fetal bovine serum, heat inactivated (HyClone Laboratories Inc., cat. SH30070.03HI), 50% L-WRN conditioned media (ATCC, cat. CRL-3276), 1.25 mM N-Acetyl-L-cysteine (Sigma-Aldrich, cat. A9165), 10 mM nicotinamide (Sigma-Aldrich, cat. N0636), 1X B-27 supplement (Thermo Fisher Scientific, cat. 17504044), 1X N-2 supplement (Thermo Fisher Scientific, cat. 17502048), 10 microM Y-27632 dihydrochloride (Tocris Bioscience, cat. 1254), and 50 ng/mL human EGF recombinant protein (Thermo Fisher Scientific, cat. PHG0311). The 485176-168-R4-J1-PDC line was cultured in Panc media, which includes all 6C/Colon 1B media components plus 100 ng/mL human FGF-10 (Thermo Fisher Scientific, cat. 100-26), 500 nM SB-431542 (Selleckchem, cat. S1067), and gastrin (Tocris, cat. 3006).\n[…]", "data": [{"smiles": "CC1COCCN1c1cc(C2(S(C)(=N)=O)CC2)nc(-c2ccnc3[nH]ccc23)n1", "note": "(configuration not stated) + CN(C)c1ccc(Nc2c3ccc(NC(=O)CCN4CCCC4)cc3nc3cc(NC(=O)CCN4CCCC4)ccc23)cc1", "values": [{"measurement": "IC50", "setting": "second compound 0.0316 µM", "result": 4.69, "unit": "µM"}, {"measurement": "IC50", "setting": "second compound 0.1 µM", "result": 4.36, "unit": "µM"}, {"measurement": "IC50", "setting": "second compound 0.316 µM", "result": 4.25, "unit": "µM"}, {"measurement": "IC50", "setting": "second compound 1 µM", "result": 4.42, "unit": "µM"}, {"measurement": "IC50", "setting": "second compound 3.16 µM", "result": 3.93, "unit": "µM"}, {"measurement": "IC50", "setting": "second compound 10 µM", "result": 2, "unit": "µM"}, {"measurement": "viability, T/C", "setting": "second compound 0.0316 µM, first compound 0.0316 µM", "result": 106, "unit": "%"}, {"measurement": "viability, T/C", "setting": "second compound 0.0316 µM, first compound 0.1 µM", "result": 102, "unit": "%"}, {"measurement": "viability, T/C", "setting": "second compound 0.0316 µM, first compound 0.316 µM", "result": 102, "unit": "%"}, {"measurement": "viability, T/C", "setting": "second compound 0.0316 µM, first compound 1 µM", "result": 101, "unit": "%"}, {"measurement": "viability, T/C", "setting": "second compound 0.0316 µM, first compound 3.16 µM", "result": 69.8, "unit": "%"}, {"measurement": "viability, T/C", "setting": "second compound 0.0316 µM, first compound 10 µM", "result": 12.3, "unit": "%"}, {"measurement": "viability, T/C", "setting": "second compound 0.1 µM, first compound 0.0316 µM", "result": 100, "unit": "%"}, {"measurement": "viability, T/C", "setting": "second compound 0.1 µM, first compound 0.1 µM", "result": 101, "unit": "%"}, {"measurement": "viability, T/C", "setting": "second compound 0.1 µM, first compound 0.316 µM", "result": 102, "unit": "%"}, {"measurement": "viability, T/C", "setting": "second compound 0.1 µM, first compound 1 µM", "result": 105, "unit": "%"}, {"measurement": "viability, T/C", "setting": "second compound 0.1 µM, first compound 3.16 µM", "result": 64.7, "unit": "%"}, {"measurement": "viability, T/C", "setting": "second compound 0.1 µM, first compound 10 µM", "result": 12.1, "unit": "%"}, {"measurement": "viability, T/C", "setting": "second compound 0.316 µM, first compound 0.0316 µM", "result": 99.8, "unit": "%"}, {"measurement": "viability, T/C", "setting": "second compound 0.316 µM, first compound 0.1 µM", "result": 102, "unit": "%"}, {"measurement": "viability, T/C", "setting": "second compound 0.316 µM, first compound 0.316 µM", "result": 104, "unit": "%"}, {"measurement": "viability, T/C", "setting": "second compound 0.316 µM, first compound 1 µM", "result": 99.8, "unit": "%"}, {"measurement": "viability, T/C", "setting": "second compound 0.316 µM, first compound 3.16 µM", "result": 62.6, "unit": "%"}, {"measurement": "viability, T/C", "setting": "second compound 0.316 µM, first compound 10 µM", "result": 12.8, "unit": "%"}, {"measurement": "viability, T/C", "setting": "second compound 1 µM, first compound 0.0316 µM", "result": 89.5, "unit": "%"}, {"measurement": "viability, T/C", "setting": "second compound 1 µM, first compound 0.1 µM", "result": 97, "unit": "%"}, {"measurement": "viability, T/C", "setting": "second compound 1 µM, first compound 0.316 µM", "result": 104, "unit": "%"}, {"measurement": "viability, T/C", "setting": "second compound 1 µM, first compound 1 µM", "result": 103, "unit": "%"}, {"measurement": "viability, T/C", "setting": "second compound 1 µM, first compound 3.16 µM", "result": 65.5, "unit": "%"}, {"measurement": "viability, T/C", "setting": "second compound 1 µM, first compound 10 µM", "result": 12.3, "unit": "%"}, {"measurement": "viability, T/C", "setting": "second compound 3.16 µM, first compound 0.0316 µM", "result": 99.8, "unit": "%"}, {"measurement": "viability, T/C", "setting": "second compound 3.16 µM, first compound 0.1 µM", "result": 100, "unit": "%"}, {"measurement": "viability, T/C", "setting": "second compound 3.16 µM, first compound 0.316 µM", "result": 106, "unit": "%"}, {"measurement": "viability, T/C", "setting": "second compound 3.16 µM, first compound 1 µM", "result": 104, "unit": "%"}, {"measurement": "viability, T/C", "setting": "second compound 3.16 µM, first compound 3.16 µM", "result": 58.8, "unit": "%"}, {"measurement": "viability, T/C", "setting": "second compound 3.16 µM, first compound 10 µM", "result": 12.4, "unit": "%"}, {"measurement": "viability, T/C", "setting": "second compound 10 µM, first compound 0.0316 µM", "result": 104, "unit": "%"}, {"measurement": "viability, T/C", "setting": "second compound 10 µM, first compound 0.1 µM", "result": 101, "unit": "%"}, {"measurement": "viability, T/C", "setting": "second compound 10 µM, first compound 0.316 µM", "result": 101, "unit": "%"}, {"measurement": "viability, T/C", "setting": "second compound 10 µM, first compound 1 µM", "result": 94, "unit": "%"}, {"measurement": "viability, T/C", "setting": "second compound 10 µM, first compound 3.16 µM", "result": 20.9, "unit": "%"}, {"measurement": "viability, T/C", "setting": "second compound 10 µM, first compound 10 µM", "result": 4.7, "unit": "%"}]}]}
